Test results: ChEMBL document CHEMBL5724806, “Unraveling interindividual differences and functional consequences of gut microbial metabolism of immunosuppressants” (2024)

Columns and labels:
Type in all cases: ADME
[1] = (§1) The drug is tested on Ruminococcus gnavus strain: ATCC29149 for biotransformation under anaerobic condition. The drug concentrations were measured over 6 timepoints collected between 0 and 12 hours of incubation by liquid-chromatography-coupled mass spectrometry (LC–MS); design: dose 5 uM, timepoint 0, 1.5, 3, 6, 9, 12 hours; conditions: mediterraneibacter gnavus, 5 µM
[2] = The drug is tested on Parabacteroides distasonis strain: DSM20701 for biotransformation under anaerobic condition. The drug concentrations were measured over 6 timepoints collected between 0 and 12 hours of incubation by liquid-chromatography-coupled mass spectrometry (LC–MS); design: dose 5 uM, timepoint 0, 1.5, 3, 6, 9, 12 hours; conditions: 5 µM
[3] = The drug is tested on Lactobacillus gasseri strain: DSM20243 for biotransformation under anaerobic condition. The drug concentrations were measured over 6 timepoints collected between 0 and 12 hours of incubation by liquid-chromatography-coupled mass spectrometry (LC–MS); design: dose 5 uM, timepoint 0, 1.5, 3, 6, 9, 12 hours; conditions: 5 µM
[4] = as §1, with “the gut metagenome community of A-10 with ENA study accession number: PRJEB31790” for “Ruminococcus gnavus strain: ATCC29149”, “7” for “6”; design: dose 5 uM, timepoint 0, 0.75, 1.5, 3, 6, 9, 12 hours; conditions: 5 µM
[5] = The drug is tested on Streptococcus sanguinis strain: DSM20567 for biotransformation under anaerobic condition. The drug concentrations were measured over 6 timepoints collected between 0 and 12 hours of incubation by liquid-chromatography-coupled mass spectrometry (LC–MS); design: dose 5 uM, timepoint 0, 1.5, 3, 6, 9, 12 hours; conditions: 5 µM
[6] = as §1, with “the gut metagenome community of A-04 with ENA study accession number: PRJEB31790” for “Ruminococcus gnavus strain: ATCC29149”, “7” for “6”; design: dose 5 uM, timepoint 0, 0.75, 1.5, 3, 6, 9, 12 hours; conditions: 5 µM
[7] = The drug is tested on Gemella morbillorum strain: DSM20572 for biotransformation under anaerobic condition. The drug concentrations were measured over 6 timepoints collected between 0 and 12 hours of incubation by liquid-chromatography-coupled mass spectrometry (LC–MS); design: dose 5 uM, timepoint 0, 1.5, 3, 6, 9, 12 hours; conditions: 5 µM
[8] = (§2) The drug is tested on the gut metagenome community of T-01 with ENA study accession number: PRJEB31790 for biotransformation under microaerobic condition. The drug concentrations were measured over 7 timepoints collected between 0 and 12 hours of incubation by liquid-chromatography-coupled mass spectrometry (LC–MS); design: dose 5 uM, timepoint 0, 0.75, 1.5, 3, 6, 9, 12 hours; conditions: 5 µM
[9] = The drug is tested on Clostridium bolteae strain: DSM15670 for biotransformation under anaerobic condition. The drug concentrations were measured over 6 timepoints collected between 0 and 12 hours of incubation by liquid-chromatography-coupled mass spectrometry (LC–MS); design: dose 5 uM, timepoint 0, 1.5, 3, 6, 9, 12 hours; conditions: enterocloster bolteae, 5 µM
[10] = The drug is tested on Clostridium ramosum strain: DSM1402 for biotransformation under anaerobic condition. The drug concentrations were measured over 6 timepoints collected between 0 and 12 hours of incubation by liquid-chromatography-coupled mass spectrometry (LC–MS); design: dose 5 uM, timepoint 0, 1.5, 3, 6, 9, 12 hours; conditions: thomasclavelia ramosa, 5 µM
[11] = as §2, with “A-06” for “T-01”, “anaerobic” for “microaerobic”; design: dose 5 uM, timepoint 0, 0.75, 1.5, 3, 6, 9, 12 hours; conditions: 5 µM
[12] = as §2, with “P-03” for “T-01”, “anaerobic” for “microaerobic”; design: dose 5 uM, timepoint 0, 0.75, 1.5, 3, 6, 9, 12 hours; conditions: 5 µM
[13] = The drug is tested on Eubacterium hallii strain: DSM3353 for biotransformation under anaerobic condition. The drug concentrations were measured over 6 timepoints collected between 0 and 12 hours of incubation by liquid-chromatography-coupled mass spectrometry (LC–MS); design: dose 5 uM, timepoint 0, 1.5, 3, 6, 9, 12 hours; conditions: anaerobutyricum hallii, 5 µM
[14] = as §2, with “T-02” for “T-01”; design: dose 5 uM, timepoint 0, 0.75, 1.5, 3, 6, 9, 12 hours; conditions: 5 µM
[15] = The drug is tested on Bifidobacterium longum strain: DSM20088 for biotransformation under microaerobic condition. The drug concentrations were measured over 6 timepoints collected between 0 and 12 hours of incubation by liquid-chromatography-coupled mass spectrometry (LC–MS); design: dose 5 uM, timepoint 0, 1.5, 3, 6, 9, 12 hours; conditions: 5 µM
[16] = The drug is tested on Streptococcus mitis strain: DSM12643 for biotransformation under anaerobic condition. The drug concentrations were measured over 6 timepoints collected between 0 and 12 hours of incubation by liquid-chromatography-coupled mass spectrometry (LC–MS); design: dose 5 uM, timepoint 0, 1.5, 3, 6, 9, 12 hours; conditions: 5 µM
[17] = The drug is tested on Parabacteroides merdae strain: DSM19495 for biotransformation under anaerobic condition. The drug concentrations were measured over 6 timepoints collected between 0 and 12 hours of incubation by liquid-chromatography-coupled mass spectrometry (LC–MS); design: dose 5 uM, timepoint 0, 1.5, 3, 6, 9, 12 hours; conditions: 5 µM
[18] = as §2, with “P-02” for “T-01”, “anaerobic” for “microaerobic”; design: dose 5 uM, timepoint 0, 0.75, 1.5, 3, 6, 9, 12 hours; conditions: 5 µM
[19] = as §2, with “A-09” for “T-01”; design: dose 5 uM, timepoint 0, 0.75, 1.5, 3, 6, 9, 12 hours; conditions: 5 µM
[20] = The drug is tested on Streptococcus anginosus strain: DSM20563 for biotransformation under anaerobic condition. The drug concentrations were measured over 6 timepoints collected between 0 and 12 hours of incubation by liquid-chromatography-coupled mass spectrometry (LC–MS); design: dose 5 uM, timepoint 0, 1.5, 3, 6, 9, 12 hours; conditions: 5 µM
[21] = as §2, with “T-02” for “T-01”, “anaerobic” for “microaerobic”; design: dose 5 uM, timepoint 0, 0.75, 1.5, 3, 6, 9, 12 hours; conditions: 5 µM
[22] = The drug is tested on Gemella morbillorum strain: DSM20572 for biotransformation under microaerobic condition. The drug concentrations were measured over 6 timepoints collected between 0 and 12 hours of incubation by liquid-chromatography-coupled mass spectrometry (LC–MS); design: dose 5 uM, timepoint 0, 1.5, 3, 6, 9, 12 hours; conditions: 5 µM
[23] = as §2, with “P-04” for “T-01”; design: dose 5 uM, timepoint 0, 0.75, 1.5, 3, 6, 9, 12 hours; conditions: 5 µM
[24] = The drug is tested on Gemella haemolysans strain: DSM107751 for biotransformation under anaerobic condition. The drug concentrations were measured over 6 timepoints collected between 0 and 12 hours of incubation by liquid-chromatography-coupled mass spectrometry (LC–MS); design: dose 5 uM, timepoint 0, 1.5, 3, 6, 9, 12 hours; conditions: 5 µM
[25] = The drug is tested on Roseburia intestinalis strain: DSM14610 for biotransformation under anaerobic condition. The drug concentrations were measured over 6 timepoints collected between 0 and 12 hours of incubation by liquid-chromatography-coupled mass spectrometry (LC–MS); design: dose 5 uM, timepoint 0, 1.5, 3, 6, 9, 12 hours; conditions: 5 µM
[26] = The drug is tested on Akkermansia muciniphila strain: DSM22959 for biotransformation under anaerobic condition. The drug concentrations were measured over 6 timepoints collected between 0 and 12 hours of incubation by liquid-chromatography-coupled mass spectrometry (LC–MS); design: dose 5 uM, timepoint 0, 1.5, 3, 6, 9, 12 hours; conditions: 5 µM
[27] = The drug is tested on Bacteroides xylanisolvens strain: HM 722 for biotransformation under anaerobic condition. The drug concentrations were measured over 6 timepoints collected between 0 and 12 hours of incubation by liquid-chromatography-coupled mass spectrometry (LC–MS); design: dose 5 uM, timepoint 0, 1.5, 3, 6, 9, 12 hours; conditions: 5 µM
[28] = The drug is tested on Faecalibacterium prausnitzii strain: DSM17677 for biotransformation under anaerobic condition. The drug concentrations were measured over 6 timepoints collected between 0 and 12 hours of incubation by liquid-chromatography-coupled mass spectrometry (LC–MS); design: dose 5 uM, timepoint 0, 1.5, 3, 6, 9, 12 hours; conditions: faecalibacterium duncaniae, 5 µM
[29] = The drug is tested on Dorea formicigenerans strain: DSM3992 for biotransformation under anaerobic condition. The drug concentrations were measured over 6 timepoints collected between 0 and 12 hours of incubation by liquid-chromatography-coupled mass spectrometry (LC–MS); design: dose 5 uM, timepoint 0, 1.5, 3, 6, 9, 12 hours; conditions: 5 µM
[30] = as §2, with “A-08” for “T-01”; design: dose 5 uM, timepoint 0, 0.75, 1.5, 3, 6, 9, 12 hours; conditions: 5 µM

SMILES | Bacterial Biotransformation [1] | Bacterial Biotransformation [2] | Bacterial Biotransformation [3] | Bacterial Biotransformation [4] | Bacterial Biotransformation [5] | Bacterial Biotransformation [6] | Bacterial Biotransformation [7] | Bacterial Biotransformation [8] | Bacterial Biotransformation [9] | Bacterial Biotransformation [10] | Bacterial Biotransformation [11] | Bacterial Biotransformation [12] | Bacterial Biotransformation [13] | Bacterial Biotransformation [14] | Bacterial Biotransformation [15] | Bacterial Biotransformation [16] | Bacterial Biotransformation [17] | Bacterial Biotransformation [18] | Bacterial Biotransformation [19] | Bacterial Biotransformation [20] | further results
NS(=O)(=O)c1cc(C(=O)O)c(NCc2ccco2)cc1Cl [FUROSEMIDE] | Compound NOT metabolized | Compound NOT metabolized | Compound NOT metabolized | Compound NOT metabolized | Compound NOT metabolized | Compound NOT metabolized | Compound NOT metabolized | Compound NOT metabolized | Compound NOT metabolized | Compound NOT metabolized | Compound NOT metabolized | Compound NOT metabolized | Compound NOT metabolized | Compound NOT metabolized | Compound NOT metabolized | Compound NOT metabolized | Compound NOT metabolized | Compound NOT metabolized | Compound NOT metabolized | Compound NOT metabolized | Bacterial Biotransformation [21]: Compound NOT metabolized; Bacterial Biotransformation [22]: Compound NOT metabolized; Bacterial Biotransformation [23]: Compound NOT metabolized; Bacterial Biotransformation [24]: Compound NOT metabolized; Bacterial Biotransformation [25]: Compound NOT metabolized; Bacterial Biotransformation [26]: Compound NOT metabolized; Bacterial Biotransformation [27]: Compound NOT metabolized; Bacterial Biotransformation [28]: Compound NOT metabolized; Bacterial Biotransformation [29]: Compound NOT metabolized; Bacterial Biotransformation [30]: Compound NOT metabolized
C[C@]12CCC(=O)C=C1CC[C@@H]1[C@@H]2[C@@H](O)C[C@@]2(C)[C@H]1CC[C@]2(O)C(=O)CO [HYDROCORTISONE] | Compound metabolized | Compound NOT metabolized | Compound NOT metabolized | Compound metabolized | Compound NOT metabolized | Compound metabolized | Compound NOT metabolized | Compound metabolized | Compound metabolized | Compound NOT metabolized | Compound metabolized | Compound metabolized | Compound NOT metabolized | Compound metabolized | Compound NOT metabolized | Compound NOT metabolized | Compound NOT metabolized | Compound NOT metabolized | Compound metabolized | Compound NOT metabolized | Bacterial Biotransformation [21]: Compound metabolized; Bacterial Biotransformation [22]: Compound NOT metabolized; Bacterial Biotransformation [23]: Compound metabolized; Bacterial Biotransformation [24]: Compound NOT metabolized; Bacterial Biotransformation [25]: Compound NOT metabolized; Bacterial Biotransformation [26]: Compound NOT metabolized; Bacterial Biotransformation [27]: Compound NOT metabolized; Bacterial Biotransformation [28]: Compound NOT metabolized; Bacterial Biotransformation [29]: Compound NOT metabolized; Bacterial Biotransformation [30]: Compound metabolized
CN(Cc1cnc2nc(N)nc(N)c2n1)c1ccc(C(=O)N[C@@H](CCC(=O)O)C(=O)O)cc1 [METHOTREXATE] | Compound NOT metabolized | Compound NOT metabolized | Compound NOT metabolized | Compound metabolized | Compound NOT metabolized | Compound metabolized | Compound NOT metabolized | Compound metabolized | Compound NOT metabolized | Compound metabolized | Compound metabolized | Compound metabolized | Compound metabolized | Compound metabolized | Compound NOT metabolized | Compound NOT metabolized | Compound NOT metabolized | Compound metabolized | Compound metabolized | Compound NOT metabolized | Bacterial Biotransformation [21]: Compound metabolized; Bacterial Biotransformation [22]: Compound NOT metabolized; Bacterial Biotransformation [23]: Compound NOT metabolized; Bacterial Biotransformation [24]: Compound NOT metabolized; Bacterial Biotransformation [25]: Compound metabolized; Bacterial Biotransformation [26]: Compound NOT metabolized; Bacterial Biotransformation [27]: Compound NOT metabolized; Bacterial Biotransformation [28]: Compound NOT metabolized; Bacterial Biotransformation [29]: Compound NOT metabolized; Bacterial Biotransformation [30]: Compound metabolized
